Starred links: 1 amine or outer side, 2 acyl side, 3 side chain; linkers in the order of their positions; H or OH if unused. Residues, ends and D or L forms follow the SMILES beside them. Groups on a side chain read outwards from the residue. *: point of attachment. C20 diacid = O=C(O)CCCCCCCCCCCCCCCCCCC(=O)*; γGlu = O=C(O)[C@H](CCC(=O)[*:2])N[*:1]
Assays:
[1] = biological target: T1, human Y2 receptor (Homo sapiens, UniProt P49146); assay: NPY receptor functional assay (cAMP, HEK-CNG cells, ACTOne membrane potential dye); type: cell-based; settings: NPY2R pEC50, HEK-CNG cells; standard PYY(3-36); species (human or rat) not given
T1 sequence (P49146 1-381): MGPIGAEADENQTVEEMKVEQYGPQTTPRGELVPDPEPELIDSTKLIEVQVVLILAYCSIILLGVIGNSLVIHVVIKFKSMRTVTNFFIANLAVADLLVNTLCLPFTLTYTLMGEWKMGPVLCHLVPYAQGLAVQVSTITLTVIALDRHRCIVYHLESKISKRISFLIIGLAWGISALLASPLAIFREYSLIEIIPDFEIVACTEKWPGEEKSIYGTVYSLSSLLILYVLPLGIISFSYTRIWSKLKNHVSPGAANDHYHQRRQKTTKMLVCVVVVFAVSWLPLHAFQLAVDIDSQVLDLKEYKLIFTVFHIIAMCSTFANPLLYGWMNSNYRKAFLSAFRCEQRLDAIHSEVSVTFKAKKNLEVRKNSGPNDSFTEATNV
From the text: (§1) The NPY family of G-protein coupled receptors include Y1, Y2, Y4, and Y5 in humans and rats. […] Following agonist binding, the receptor-G protein complex activates a downstream intracellular signaling cascade which leads to inhibition of adenylate cyclase and a reduction in intracellular cAMP levels.
(§2) HEK-CNG cells stably expressing the human or rat Y1, Y2, Y4 or Y5 receptors (Codex Biosolutions) were used to characterize the functional potency of peptide agonists using the ActOne™ membrane potential dye kit (Codex Biosolutions). In addition to each NPY receptor, each cell line encodes a proprietary exogenous Cyclic Nucleotide-Gated (CNG) channel (Codex Biosolutions). The channel is activated by elevated intracellular levels of cAMP, resulting in ion flux and cell membrane depolarization which can be detected with a calcium sensitive dye or fluorescent membrane potential (MP) dye. Cells were carried in growth media containing 90% DMEM, 10% FBS, 250 mcg/mL G418 and 1 mcg/mL puromycin for no more than 15 passages.
(§3) Prior to testing, cells were counted and dispensed at 14,000 cells per well (Y1, Y4 and Y5) or 28,000 cells per well (Y2) into black 384 well Poly-D-Lysine plates at 20 mcL per well. Covered plates were then incubated at room temperature for 30 minutes followed by an overnight incubation at 37° C. in 5% C02. The following day, media was removed and wells were washed once with 40 mcL Dulbecco's phosphate buffered saline. […] Ten microliters of experimental peptide or peptide standard was added in triplicate to wells and incubated for 50 minutes at room temperature in the dark. Following this incubation step, plates were read again as before (final read).
(§4) NPY receptor activation, leading to a reduction in intracellular cAMP levels, is detected as a decrease in isoproteranol induced fluorescent signal. Peptide standard and experimental values were initially transformed in excel using the formula: final read/initial read. Transformed values were then normalized to receptor specific standard values (1×10−13 M minimum and 1×10−7 M maximum) using the formula: (test value−standard minavg)/(standard maxavg−standard minavg)*100. […] Normalized data was analyzed from triplicate tests and used to estimate the EC50 for each test peptide on each receptor. Data was fit in GraphPad Prism software (v8.2.1) using a 3-parameter logistic curve model: Y=Bottom+(Top−Bottom)/(1+10^((LogEC50−X))). EC50 values were converted to pEC50 values using the formula: pEC50=−Log(EC50).

[2] = biological target: T2, human Y5 receptor (Homo sapiens, UniProt Q15761); assay: as above; type: cell-based; settings: NPY5R pEC50, HEK-CNG cells; standard NPY; species (human or rat) not given
T2 sequence (Q15761 1-445): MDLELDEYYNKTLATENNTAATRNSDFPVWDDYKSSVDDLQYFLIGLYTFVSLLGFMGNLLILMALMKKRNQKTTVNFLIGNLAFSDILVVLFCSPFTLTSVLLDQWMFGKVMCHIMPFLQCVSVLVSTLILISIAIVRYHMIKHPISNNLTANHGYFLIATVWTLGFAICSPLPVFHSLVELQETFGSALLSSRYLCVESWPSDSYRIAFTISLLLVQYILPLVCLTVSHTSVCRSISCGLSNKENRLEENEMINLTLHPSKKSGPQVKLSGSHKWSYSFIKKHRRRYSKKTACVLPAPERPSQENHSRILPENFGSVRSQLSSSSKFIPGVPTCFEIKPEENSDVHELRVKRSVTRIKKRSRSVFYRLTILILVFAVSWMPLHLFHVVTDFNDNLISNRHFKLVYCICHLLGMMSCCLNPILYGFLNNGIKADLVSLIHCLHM
From the text: as §1, §2, §3, §4

| SMILES | EC50 [1] [nM] | EC50 [2] [nM] |
| --- | --- | --- |
| CC(C)C[C@H](NC(=O)[C@H](CC(=O)O)NC(=O)[C@H](CCCCN)NC(=O)[C@H](Cc1ccc(O)cc1)NC(=O)[C@H](Cc1ccc(O)cc1)NC(=O)[C@H](CCCNC(=N)N)NC(=O)[C@H](CC(N)=O)NC(=O)[C@H](Cc1c[nH]c2ccccc12)NC(=O)[C@H](CCC(=O)O)NC(=O)[C@H](CCCCN)NC(=O)[C@@H]1CCCN1C(=O)[C@H](CO)NC(=O)[C@H](C)NC(=O)[C@H](CC(=O)O)NC(=O)[C@H](CCC(=O)O)NC(=O)CNC(=O)[C@@H]1CCCN1C(=O)[C@H](CCCCNC(=O)CC[C@H](NC(=O)CC[C@H](NC(=O)CCCCCCCCCCCCCCCCCC(=O)O)C(=O)O)C(=O)O)NC(=O)[C@H](CCC(=O)O)NC(=O)[C@@H]1CCCN1C(=O)[C@H](CCCCN)NC(=O)[C@@H]1CCCN1)C(=O)N[C@@H](CCCNC(=N)N)C(=O)N[C@@H](Cc1c[nH]cn1)C(=O)N[C@@H](Cc1ccc(O)cc1)C(=O)N[C@@H](CC(C)C)C(=O)N[C@@H](CC(N)=O)C(=O)N[C@@H](Cc1c[nH]c2ccccc12)C(=O)N[C@@H](CC(C)C)C(=O)N[C@H](C(=O)N[C@@H](CCCNC(=N)N)C(=O)N[C@@H](CCC(N)=O)C(=O)N[C@@H](CCCNC(=N)N)C(=O)N[C@@H](Cc1ccccc1)C(N)=O)[C@@H](C)O [Compound A36] | 0.0126 | 2 |
| CC(C)C[C@H](NC(=O)[C@H](CC(=O)O)NC(=O)[C@H](CCCCN)NC(=O)[C@H](Cc1ccc(O)cc1)NC(=O)[C@H](Cc1ccc(O)cc1)NC(=O)[C@H](CCCNC(=N)N)NC(=O)[C@H](CC(N)=O)NC(=O)[C@H](Cc1c[nH]c2ccccc12)NC(=O)[C@H](CCC(=O)O)NC(=O)[C@H](CCCCN)NC(=O)[C@@H]1CCCN1C(=O)[C@H](CO)NC(=O)[C@H](C)NC(=O)[C@H](CC(=O)O)NC(=O)[C@H](CCCCN)NC(=O)CNC(=O)[C@@H]1CCCN1C(=O)[C@H](CCCCNC(=O)CC[C@H](NC(=O)CC[C@H](NC(=O)CCCCCCCCCCCCCCCCCCC(=O)O)C(=O)O)C(=O)O)NC(=O)[C@H](CCC(=O)O)NC(=O)[C@@H]1CCCN1C(=O)[C@H](CCCCN)NC(=O)[C@@H]1CCCN1)C(=O)N[C@@H](CCCNC(=N)N)C(=O)N[C@@H](Cc1c[nH]cn1)C(=O)N[C@@H](Cc1ccc(O)cc1)C(=O)N[C@@H](CC(C)C)C(=O)N[C@@H](CC(N)=O)C(=O)N[C@@H](Cc1c[nH]c2ccccc12)C(=O)N[C@@H](CC(C)C)C(=O)N[C@H](C(=O)N[C@@H](CCCNC(=N)N)C(=O)N[C@@H](CCC(N)=O)C(=O)N[C@@H](CCCNC(=N)N)C(=O)N[C@@H](Cc1ccccc1)C(N)=O)[C@@H](C)O [Compound A37] (H-PKPEK([γGlu-γGlu-C20 diacid])PGKDASPKEWNRYYKDLRHYLNWLTRQRF-NH2; N-terminus assumed) | 0.0158 | 2.51 |
| CC(C)C[C@H](NC(=O)[C@H](CC(=O)O)NC(=O)[C@H](CCCCN)NC(=O)[C@H](Cc1ccc(O)cc1)NC(=O)[C@H](Cc1ccc(O)cc1)NC(=O)[C@H](CCCNC(=N)N)NC(=O)[C@H](CC(N)=O)NC(=O)[C@H](Cc1c[nH]c2ccccc12)NC(=O)[C@H](CCC(=O)O)NC(=O)[C@H](CCCCNC(=O)CC[C@H](NC(=O)CC[C@H](NC(=O)CCCCCCCCCCCCCCCCCCC(=O)O)C(=O)O)C(=O)O)NC(=O)[C@@H]1CCCN1C(=O)[C@H](CO)NC(=O)[C@H](C)NC(=O)[C@H](CC(=O)O)NC(=O)[C@H](CCCCN)NC(=O)CNC(=O)[C@@H]1CCCN1C(=O)[C@H](CCCCN)NC(=O)[C@H](CCC(=O)O)NC(=O)[C@@H]1CCCN1C(=O)[C@H](CCCCN)NC(=O)[C@@H]1CCCN1)C(=O)N[C@@H](CCCNC(=N)N)C(=O)N[C@@H](Cc1c[nH]cn1)C(=O)N[C@@H](Cc1ccc(O)cc1)C(=O)N[C@@H](CC(C)C)C(=O)N[C@@H](CC(N)=O)C(=O)N[C@@H](Cc1c[nH]c2ccccc12)C(=O)N[C@@H](CC(C)C)C(=O)N[C@H](C(=O)N[C@@H](CCCNC(=N)N)C(=O)N[C@@H](CCC(N)=O)C(=O)N[C@@H](CCCNC(=N)N)C(=O)N[C@@H](Cc1ccccc1)C(N)=O)[C@@H](C)O [Compound A70] (H-PKPEKPGKDASPK([γGlu-γGlu-C20 diacid])EWNRYYKDLRHYLNWLTRQRF-NH2; N-terminus assumed) | 0.0398 | 2 |
| CC(C)C[C@H](NC(=O)[C@H](CC(=O)O)NC(=O)[C@H](CCCCN)NC(=O)[C@H](Cc1ccc(O)cc1)NC(=O)[C@H](Cc1ccc(O)cc1)NC(=O)[C@H](CCCNC(=N)N)NC(=O)[C@H](CC(N)=O)NC(=O)[C@H](Cc1c[nH]c2ccccc12)NC(=O)[C@H](CCC(=O)O)NC(=O)[C@H](CCCCN)NC(=O)[C@@H]1CCCN1C(=O)[C@H](CO)NC(=O)[C@H](C)NC(=O)[C@H](CC(=O)O)NC(=O)[C@H](CCCCN)NC(=O)CNC(=O)[C@@H]1CCCN1C(=O)[C@H](CCCCNC(=O)CC[C@H](NC(=O)CC[C@H](NC(=O)CCCCCCCCCCCCCCCCCCC(=O)O)C(=O)O)C(=O)O)NC(=O)[C@H](CCC(=O)O)NC(=O)[C@@H]1CCCN1C(=O)[C@H](CCCCN)NC(=O)[C@@H]1CCCN1)C(=O)N[C@@H](CCCNC(=N)N)C(=O)N[C@@H](Cc1c[nH]cn1)C(=O)N[C@@H](Cc1ccc(O)cc1)C(=O)N[C@@H](CC(C)C)C(=O)N[C@@H](CC(N)=O)C(=O)N[C@@H](Cc1c[nH]c2ccccc12)C(=O)N[C@@H](CC(C)C)C(=O)N[C@H](C(=O)N[C@@H](CCCNC(=N)N)C(=O)N[C@@H](CCC(N)=O)C(=O)N[C@@H](CCCNC(=N)N)C(=O)N[C@@H](Cc1ccccc1)C(N)=O)[C@@H](C)O [Compound A71] (H-PKPEK([γGlu-γGlu-C20 diacid])PGKDASPKEWNRYYKDLRHYLNWLTRQRF-NH2; N-terminus assumed) | 0.02 | 1.58 |
| CC(C)C[C@H](NC(=O)[C@H](CC(=O)O)NC(=O)[C@H](CCCCN)NC(=O)[C@H](Cc1ccc(O)cc1)NC(=O)[C@H](Cc1ccc(O)cc1)NC(=O)[C@H](CCCNC(=N)N)NC(=O)[C@H](CO)NC(=O)[C@H](Cc1c[nH]c2ccccc12)NC(=O)[C@H](CCC(=O)O)NC(=O)[C@H](CCC(=O)O)NC(=O)[C@@H]1CCCN1C(=O)[C@H](CO)NC(=O)[C@H](C)NC(=O)[C@H](CC(=O)O)NC(=O)[C@H](CCCCNC(=O)CC[C@H](NC(=O)CC[C@H](NC(=O)CCCCCCCCCCCCCCCCCCC(=O)O)C(=O)O)C(=O)O)NC(=O)CNC(=O)[C@@H]1CCCN1C(=O)[C@H](CCCCN)NC(=O)[C@H](CCC(=O)O)NC(=O)[C@@H]1CCCN1C(=O)[C@H](CCCCN)NC(=O)[C@@H]1CCCN1)C(=O)N[C@@H](CCCNC(=N)N)C(=O)N[C@@H](Cc1c[nH]cn1)C(=O)N[C@@H](Cc1ccc(O)cc1)C(=O)N[C@@H](CC(C)C)C(=O)N[C@@H](CC(N)=O)C(=O)N[C@@H](Cc1c[nH]c2ccccc12)C(=O)N[C@@H](CC(C)C)C(=O)N[C@H](C(=O)N[C@@H](CCCNC(=N)N)C(=O)N[C@@H](CCC(N)=O)C(=O)N[C@@H](CCCNC(=N)N)C(=O)N[C@@H](Cc1ccccc1)C(N)=O)[C@@H](C)O [Compound A75] |  | 0.501 |

From US12122816B2, “Long acting peptide tyrosine tyrosine (PYY) analogs and methods of use” (Intarcia Therapeutics, Inc., priority 2020, dated 2024)
